Earlier results on four molecules are cited in patent publication US20020128208A1, “Nonpeptide agonists and antagonists of vasopressin receptors” (priority 2000, published 2002).

The series deals with V2, V1a or both receptor. The conditions noted are these: prior-art antagonists disclosed by other companies; receptor subtype and species not stated.
For the molecule `Cc1ccccc1C(=O)Nc1ccc(C(=O)N2CCCC(N(C)C)c3ccccc32)cc1` (stereo not shown) [OPC-31260], the inhibitory constant (Ki) was 21.7 nM.

With `Cc1ccc(F)cc1C(=O)Nc1ccc(C(=O)N2Cc3cccn3Cc3ccccc32)c(Cl)c1` [VPA-985], the Ki was 0.5 nM.

Consider `Cc1ccc(F)cc1C(=O)Nc1ccc(C(=O)N2Cc3cccn3Cc3ccccc32)c(Cl)c1` [YM35087], for which the Ki is 1.8 nM.

Turning to `CC(C)(C)NC(=O)c1ccc(S(=O)(=O)N2C(=O)C3(CCC(OCCN4CCOCC4)CC3)c3ccccc32)cc1` (stereo not shown) [SR121463A], the Ki was 1.42 nM.

Broadly, the Ki is a measure of affinity in units of concentration, obtained from inhibition or displacement.
